Laboratory results as given in PubChem BioAssay (NCI).
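Values below derive from 48-hour exposures of cells grown in 96-well plates, with endpoints linearly interpolated between the two concentrations bracketing the appropriate inhibition level. Definition used: TGI = concentration required for complete inhibition of growth.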

Legend:
Experiment in all cases: growth of human tumour cells (NCI), 48 h
[1] = test system: SK-MEL-28 melanoma
[2] = test system: KM12 colon
[3] = test system: TK-10 renal
[4] = test system: A549 NSCLC
[5] = test system: ACHN renal
[6] = test system: UO-31 renal
[7] = test system: NCI-H23 lung
[8] = test system: CCRF-CEM leukemia
[9] = test system: HL-60(TB) leukemia
[10] = test system: MALME-3M melanoma

Compound | TGI [1] | TGI [2] | TGI [3] | TGI [4] | TGI [5] | TGI [6] | TGI [7] | TGI [8] | TGI [9] | TGI [10]
COc1ccc(N2C(=O)CC(C3CC(C(C)(C)C)CCC3=O)C2=O)cc1 (stereo unspecified) | > 100 µM | > 100 µM | > 100 µM | > 100 µM | > 100 µM | > 100 µM | > 100 µM | > 100 µM | > 100 µM | –
Nc1c2c(nc3cc(F)c(F)cc13)CCC2 | > 100 µM | > 100 µM | 77.7 µM | > 100 µM | > 100 µM | 20.7 µM | > 100 µM | – | 10.1 µM | > 100 µM
COc1ccc(C2COc3cc(OC(C)=O)c(OC(C)=O)cc3C2)cc1 (stereo unspecified) | 46.9 µM | 34 µM | – | 52.5 µM | – | 40.6 µM | 63.1 µM | 16.4 µM | 7.32 µM | 44.8 µM
O=Cc1cn(CCCCCCCCCCCCn2cc(C=O)c3ccccc32)c2ccccc12 | > 100 µM | – | > 100 µM | > 100 µM | > 100 µM | > 100 µM | > 100 µM | – | > 100 µM | > 100 µM
N#Cc1c(-c2ccc(Cl)cc2)c2c([nH]c1=O)-c1ccccc1SC2 | > 100 µM | > 100 µM | 52.9 µM | > 100 µM | – | > 100 µM | > 100 µM | 88.6 µM | 56.7 µM | > 100 µM
CC(C)(C)[Si](C)(C)OCC1OC(n2ccc(N)nc2=O)C(O[Si](C)(C)C(C)(C)C)C1O[Si](C)(C)C(C)(C)C (stereo unspecified) | – | – | – | 11.6 µM | 3.21 µM | 3.07 µM | – | – | – | 4.11 µM
Oc1c(C2=NNC(c3ccc(Cl)cc3Cl)C2)ccc2ccccc12 (stereo unspecified) | > 100 µM | > 100 µM | > 100 µM | > 100 µM | > 100 µM | > 100 µM | > 100 µM | 32.8 µM | – | > 100 µM
CCCCN(CCCC)CC(O)c1cc(-c2ccc(C(F)(F)F)cc2)nc(-c2ccc(C(F)(F)F)cc2)c1 (stereo unspecified) | > 100 µM | – | > 100 µM | – | > 100 µM | > 100 µM | > 100 µM | > 100 µM | > 100 µM | > 100 µM
O=C1NC(NNc2ccccc2)=N/C1=C\c1ccccc1O | > 100 µM | > 100 µM | > 100 µM | > 100 µM | > 100 µM | > 100 µM | > 100 µM | – | > 100 µM | > 100 µM
COC(=O)c1cc2c3c(ccc2[nH]1)N(C(=O)c1cc2cc(OC)c(OC)c(OC)c2[nH]1)CC3CCl (stereo unspecified) | > 100 µM | > 100 µM | > 100 µM | > 100 µM | > 100 µM | > 100 µM | > 100 µM | > 100 µM | – | > 100 µM
NC1CC(=O)c2c(Br)csc21 (stereo unspecified) | 79.9 µM | > 100 µM | 96.7 µM | > 100 µM | > 100 µM | 81.2 µM | – | > 100 µM | 81.9 µM | > 100 µM
CN=c1nc2sc3c(c2c(NC(=S)NC)s1)CCCC3 | > 100 µM | > 100 µM | > 100 µM | – | > 100 µM | > 100 µM | > 100 µM | > 100 µM | > 100 µM | > 100 µM
O=C(O)c1ccc(Nc2c3ccccc3nc3ccccc23)cc1 | > 100 µM | > 100 µM | – | > 100 µM | – | > 100 µM | > 100 µM | > 100 µM | > 100 µM | > 100 µM
O=c1cc(N2CCOCC2)[nH]c(=O)n1-c1ccc(F)cc1 | > 100 µM | > 100 µM | > 100 µM | – | > 100 µM | – | > 100 µM | > 100 µM | > 100 µM | > 100 µM
COc1cc(C(=O)n2c3ccc(Br)cc3c3nc4ccccc4nc32)cc(OC)c1OC | > 100 µM | > 100 µM | > 100 µM | – | > 100 µM | > 100 µM | > 100 µM | > 100 µM | > 100 µM | > 100 µM
OCCCCCCCCCCCOc1ccc(C2OCC3(CO2)COC(c2ccc(OCCCCCCCCCCCO)cc2)OC3)cc1 (stereo unspecified) | > 50 µM | > 50 µM | > 50 µM | > 50 µM | > 50 µM | > 50 µM | > 50 µM | – | – | > 50 µM
CCOc1cc2c(OCc3ccccc3)cc3c4cc(OC)c(OC)cc4c[n+](C)c3c2cc1OC | – | – | > 62.6 µM | 24.2 µM | > 75.2 µM | > 80.4 µM | 9.1 µM | 23 µM | – | 2.18 µM
CS(=O)(=O)O[C@H]1CN2C[C@@H](O)[C@@H](O)[C@H]2[C@H]1CO | > 100 µM | > 100 µM | > 100 µM | > 100 µM | > 100 µM | > 100 µM | > 100 µM | > 100 µM | – | > 100 µM

Compound | TGI [1] | TGI [2] | TGI [3] | TGI [4] | TGI [5] | TGI [6] | TGI [7] | TGI [8] | TGI [9] | TGI [10]
CCCC[C@@H]1CCN2C[C@@H](O)[C@@H](O)[C@@H]2[C@H]1O | > 100 µM | > 100 µM | – | > 100 µM | > 100 µM | > 100 µM | > 100 µM | > 100 µM | > 100 µM | > 100 µM
CC(C)CC1C(=O)NCCC(NC(=O)C(Cc2ccc(OC(C)(C)C)cc2)NC(=O)OC(C)(C)C)C(=O)NC(Cc2ccccc2)C(=O)NC(Cc2ccccc2)NC1=O (stereo unspecified) | 42.4 µM | > 100 µM | 33.8 µM | – | 23.3 µM | > 100 µM | 33.7 µM | 55 µM | 26.9 µM | 32 µM
COc1cc(/C=C2\C[C@H]3[C@@H]4CCc5cc(O)ccc5[C@H]4CC[C@]3(C)C2=O)cc(OC)c1OC | 24.8 µM | 38.1 µM | 25.1 µM | 31.8 µM | 38.7 µM | 29.4 µM | 28.5 µM | 27.4 µM | – | 13.4 µM
CN(C(=O)C1=CCC2(CC1)OCCO2)c1ccccc1OS(=O)(=O)C(F)(F)F | > 100 µM | > 100 µM | – | > 100 µM | > 100 µM | > 100 µM | > 100 µM | > 100 µM | > 100 µM | –
Nc1ccc2c(c1)N(C(=O)c1cc3cc(NC(=O)c4cc5ccccc5o4)ccc3[nH]1)CC2CCl (stereo unspecified) | 0.502 µM | 2.37 µM | 2.07 µM | > 34.1 µM | 11.6 µM | 13.1 µM | 0.161 µM | – | > 100 µM | 0.289 µM
Cc1cc(C)nc(NC(=O)c2ccc(Br)s2)c1 | > 100 µM | > 100 µM | > 100 µM | > 100 µM | > 100 µM | > 100 µM | > 100 µM | 15.6 µM | – | > 100 µM
CCc1cc2c(oc3cc4ccccc4cc32)c(=O)[nH]1 | – | > 10 µM | > 10 µM | > 10 µM | > 10 µM | > 10 µM | – | – | > 10 µM | > 10 µM
O=C1NC(=O)C(c2c[nH]c3ccccc23)=C1c1cnc[nH]1 | > 100 µM | > 100 µM | > 100 µM | > 100 µM | > 100 µM | > 100 µM | – | > 100 µM | > 100 µM | > 100 µM
COc1ccc(N2C(=O)/C(=C(\C)c3cc4ccccc4oc3=O)N=C2c2cc([N+](=O)[O-])ccc2Cl)cc1 | > 100 µM | 87.4 µM | – | > 100 µM | > 100 µM | > 100 µM | > 100 µM | > 100 µM | 70.8 µM | > 100 µM
CC(C)(Br)C(Br)CCC1(C2CO2)CO1 (stereo unspecified) | > 5 µM | – | – | > 5 µM | > 5 µM | > 5 µM | > 5 µM | > 5 µM | – | > 5 µM
CC1(C)CC(=O)c2[nH]c3ccccc3c2CC(=O)NCCc2cn1cn2 | > 100 µM | > 100 µM | > 100 µM | > 100 µM | > 100 µM | > 100 µM | > 100 µM | – | – | > 100 µM
Nc1ccc(-c2nc3cc(F)ccc3s2)cc1Cl | > 100 µM | > 100 µM | 0.176 µM | > 100 µM | > 85 µM | > 100 µM | – | > 100 µM | > 100 µM | 67.8 µM
CCCCC1=NNC(=O)C1 | > 100 µM | > 100 µM | – | > 100 µM | > 100 µM | > 100 µM | > 100 µM | > 100 µM | > 100 µM | > 100 µM
COc1cc(C2SCC(=O)N2c2ccccn2)cc(OC)c1OC (stereo unspecified) | > 100 µM | > 100 µM | > 100 µM | > 100 µM | > 100 µM | > 100 µM | > 100 µM | > 100 µM | > 100 µM | –
CC(=O)c1ccc(NCc2cc(O)ccc2O)cc1 | > 100 µM | 34.2 µM | 29 µM | – | 33 µM | 23.9 µM | 48.9 µM | > 100 µM | 76.9 µM | –
OC1[C@@H]2[C@@H](O)[C@H](O)[C@@H](O)N2C[C@@H]1O (stereo partly specified) | > 100 µM | > 100 µM | > 100 µM | > 100 µM | > 100 µM | > 100 µM | > 100 µM | > 100 µM | – | > 100 µM
OCC1OC(c2cccc3cc(O)c(O)cc23)CC1O (stereo unspecified) | > 100 µM | > 100 µM | > 100 µM | > 100 µM | > 100 µM | > 100 µM | – | – | > 100 µM | –
CC(=O)Nc1ccc(C(=O)NN2C(=O)CSC2c2ccc([N+](=O)[O-])cc2)cc1 (stereo unspecified) | > 100 µM | > 100 µM | > 100 µM | > 100 µM | > 100 µM | > 100 µM | > 100 µM | > 100 µM | – | –
